Experimental data reported in patent publication US6909029B2, “Caenorhabditis elegans chemosensory bioassay for seven transmembrane receptor ligands” (SmithKline Beecham Corporation, priority 2000, dated 2005).

Tested on: C. elegans
Test: Consumption of GFP-expressing bacteria by a culture of C. elegans (fluorescent plate reader)
Type: in vivo, Caenorhabditis elegans
Protocol: Two cultures of C. elegans and GFP-expressing bacteria were placed in microtiter wells. In one well, a lethal concentration of 10 nanomolar ivermectin was placed. The GFP fluorescence in the wells was determined by a fluorescent plate reader instrument at the initial time, and after two days of culture.
As the C. elegans grow and reproduce, the E. coli lawn is diminished until no bacteria remain. Therefore, the reduction of the bacterial lawn is a measurement of an actively feeding population of C. elegans. The rate of decrease of the lawn is proportional to the number of feeding animals present. […] The consumption of bacteria can be used as an indirect indicator of the distribution of animals. Substances can be spotted onto a substrate in an array, and a uniform lawn of bacteria placed on the substrate, overlaying the array. A test population of C. elegans can be introduced and incubated for a suitable time period to allow consumption of the lawn. If the animals are attracted to a substance, then they will move to that region of the substrate and the bacterial lawn will be diminished at that spot in comparison to the surrounding lawn. Conversely, if a substance repels the animals, then the bacterial lawn at that spot will not be consumed. Thus, bacterial consumption can be used to assay the growth and location of a population of nematodes. If a GFP-expressing bacterial strain is used (Chalfie, et al., supra) as was done in the experiment of Example 3, the variations in bacterial density can be easily detected, for example, by photographing fluorescence intensity.
In this experiment, GFP-expressing bacteria are placed in two microtiter wells along with a population of C. elegans. Because the bacteria express GFP, the amount of bacteria can easily be assayed using a fluorescent plate reader (Cytoflour, Perspective Biosystems). […] Initially, both wells show equivalent levels of bacteria. […] FIG. 3 depicts this experiment. Thus, bacterial consumption can be used to assay the growth and feeding of a population of nematodes. If a GFP-expressing bacterial strain is used (Chalfie, et al., supra) as was done in the experiment shown in FIG. 3, the variations in bacterial density can be easily visualized by photographing fluorescence intensity.

Substance: ivermectin
- GFP fluorescence of bacteria in the well (Relative Intensity) (10 nanomolar ivermectin, after two days of culture): GFP fluorescence increases
- Effect on C. elegans (in vivo): kills C. elegans
- Amount of GFP-expressing bacteria in the well (ivermectin-containing well, after 4 days of culture): shows bacterial growth
- Lethal concentration for C. elegans (microtiter well culture with GFP-expressing bacteria): 10 nM
